Measurements reported in patent US6348461B1, “6,7-asymmetrically disubstituted quinoxalinecarboxylic acid derivatives, addition salts thereof, and processes for the preparation of both” (Kyorin Pharmaceutical Co., Ltd., priority 1997, dated 2002).

What was measured:
AMPA receptor = experiment: Binding experiment to AMPA receptor ([3H]-AMPA displacement, crude synaptosome membrane preparations); design: species or system rats; conditions: crude synaptosome membranes from rat cerebral cortex; [3H]-AMPA 5 nM; potassium thiocyanate 100 mM; 30 minutes at 0° C.; Ki converted from IC50
Procedure: Binding Experiment to AMPA Receptor
After the reactions were stopped by suction filtration, the radio activity on the filter was measured with liquid scintillation counter. The specific binding of [^3H]-AMPA was determined by subtracting nonspecific binding level in the presence of glutamic acid (0.1 mM) from overall binding level.

| SMILES | Ki (AMPA receptor) [nM] | melting point |
| --- | --- | --- |
| O=C(O)c1nc2cc(Cl)c([N+](=O)[O-])cc2[nH]c1=O [Example 5, 7-Chloro-3,4-dihydro-6-nitro-3-oxoquinoxaline-2-carboxylic Acid] | 1260 |  |
| O=C(O)c1nc2cc(F)c([N+](=O)[O-])cc2[nH]c1=O [Example 6, 3,4-Dihydro-7-fluoro-6-nitro-3-oxoquinoxaline-2-carboxylic Acid] | 2010 |  |
| O=C(O)c1nc2cc(Br)c([N+](=O)[O-])cc2[nH]c1=O [Example 7, 7-Bromo-3,4-dihydro-6-nitro-3-oxoquinoxaline-2-carboxylic Acid] | 630 |  |
| Cc1cc2nc(C(=O)O)c(=O)[nH]c2cc1[N+](=O)[O-] [Example 8, 3,4-Dihydro-7-methyl-6-nitro-3-oxoquinoxaline-2-carboxylic Acid] | 330 | 239 to 242 °C |
| O=C(O)c1nc2cc(N3CCOCC3)c([N+](=O)[O-])cc2[nH]c1=O [Example 35, 3,4-Dihydro-7-morpholino-6-nitro-3-oxoquinoxaline-2-carboxylic Acid] | 2040 | 213.5 to 214.5 °C |
| O=C(O)c1nc2cc(-n3ccnc3)c([N+](=O)[O-])cc2[nH]c1=O [Example 36, 3,4-Dihydro-7-(imidazole-1-yl)-6-nitro-3-oxoquinoxaline-2-carboxylic Acid] | 450 | > 300 °C |
| O=C(O)c1nc2cc(-n3ccc(=O)cc3)c([N+](=O)[O-])cc2[nH]c1=O [Example 37, 3,4-Dihydro-6-nitro-3-oxo-7-(4-pyridone-1-yl)quinoxaline-2-carboxylic Acid] | 330 | 283 to 285 °C |
| CN(C)c1cc2nc(C(=O)O)c(=O)[nH]c2cc1[N+](=O)[O-] [Example 39, 3,4-Dihydro-7-dimethylamino-6-nitro-3-oxoquinoxaline-2-carboxylic Acid] | 910 |  |
| O=C(O)c1nc2cc(Oc3ccccc3)c([N+](=O)[O-])cc2[nH]c1=O [Example 62, 3,4-Dihydro-6-nitro-3-oxo-7-phenoxyquinoxaline-2-carboxylic Acid] | 860 | 154 to 156 °C (dec.) |
| Cl.O=C(O)c1nc2cc(Cn3ccnc3)c([N+](=O)[O-])cc2[nH]c1=O [Example 66, 3,4-Dihydro-7-(imidazole-1-yl)methyl-6-nitro-3-oxoquinoxaline-2-carboxylic Acid Hydrochloride] | 360 | > 300 °C |
| O=C(Nc1ccccc1F)OCc1cn(-c2cc3nc(C(=O)O)c(=O)[nH]c3cc2[N+](=O)[O-])cn1 [Example 96] | 28.2 | 251 to 253 °C (dec.) |
| O=C(Nc1ccccc1C(F)(F)F)OCc1cn(-c2cc3nc(C(=O)O)c(=O)[nH]c3cc2[N+](=O)[O-])cn1 [Example 101] | 32.3 | 230 to 232 °C (dec.) |
| O=C(Nc1ccccc1)OCc1cn(-c2cc3nc(C(=O)O)c(=O)[nH]c3cc2[N+](=O)[O-])ccc1=O [Example 121, 3,4-Dihydro-6-nitro-3-oxo-7-(3-((N-phenylcarbamoyloxy)methyl)-4-pyridone-1-yl)quinoxaline-2-carboxylic Acid] | 172 | 230 to 232 °C (dec.) |
| O=C(Nc1cccc(Br)c1)OCc1cn(-c2cc3nc(C(=O)O)c(=O)[nH]c3cc2[N+](=O)[O-])ccc1=O [Example 123] | 48.1 | 199 to 201 °C (dec.) |
| O=C(O)Cc1cn(-c2cc3nc(C(=O)O)c(=O)[nH]c3cc2[N+](=O)[O-])cn1 [Example 303, 7-(4-(Carboxymethyl)imidazolyl)-3,4-dihydro-6-nitro-3-oxoquinoxaline-2-carboxylic Acid] |  | > 300 °C |
| CCOC(=O)c1ccc(NC(=O)OCc2cn(-c3cc4nc(C(=O)O)c(=O)[nH]c4cc3[N+](=O)[O-])ccc2=O)cc1 [Example 306, 7-(3-((N-(4-Ethoxycarbonylphenyl)carbamoyloxy)methyl)-4-pyridone-1-yl)-3,4-dihydro-6-nitro-3-oxoquinoxaline-2-carboxylic Acid] |  | 201 to 203 °C (dec.) |
| O=C(Nc1ccc(C(=O)O)cc1)OCc1cn(-c2cc3nc(C(=O)O)c(=O)[nH]c3cc2[N+](=O)[O-])ccc1=O [Example 307, 7-(3-((N-(4-Carboxyphenyl)carbamoyloxy)methyl)-4-pyridone-1-yl)-3,4-dihydro-6-nitro-3-oxoquinoxaline-2-carboxylic Acid] |  | 231 to 233 °C (dec.) |
